≈ marks a conversion by molar mass, not a printed value.
How the values were obtained:
[1] = system: Acinetobacter baumannii; assay: Antibacterial activity against Acinetobacter baumannii assessed as inhibition of bacterial growth by CLSI protocol based assay; assay type: functional
[2] = system: Staphylococcus aureus; assay: Antibacterial activity against Staphylococcus aureus; assay type: functional
[3] = Selectivity index, ratio of CC50 for cytotoxicity against African green monkey VERO cells to MIC for antibacterial activity against carbapenem-resistant Acinetobacter baumannii BAA 1605 assessed as inhibition of bacterial growth; assay type: toxicity, cell-based; details: read-out: Selectivity Index
[4] = system: Acinetobacter baumannii; assay: Antibacterial activity against multi-drug resistant Acinetobacter baumannii Naval-17 assessed as inhibition of bacterial growth incubated for 16 to 18 hrs by CLSI protocol based method; assay type: functional; details: time 16-18 hrs, read-out: MIC100
[5] = system: Acinetobacter baumannii; assay: Antibacterial activity against multi-drug resistant Acinetobacter baumannii Naval-18 assessed as inhibition of bacterial growth incubated for 16 to 18 hrs by CLSI protocol based method; assay type: functional; details: time 16-18 hrs, read-out: MIC100
[6] = system: Acinetobacter baumannii; assay: Antibacterial activity against multi-drug resistant Acinetobacter baumannii 5-189 assessed as inhibition of bacterial growth incubated for 16 to 18 hrs by CLSI protocol based method; assay type: functional; details: time 16-18 hrs, read-out: MIC100
[7] = system: Acinetobacter baumannii; assay: Antibacterial activity against multi-drug resistant Acinetobacter baumannii clinical isolate 4 assessed as inhibition of bacterial growth incubated for 16 to 18 hrs by CLSI protocol based method; assay type: functional; details: time 16-18 hrs, read-out: MIC100
[8] = system: Acinetobacter baumannii; assay: Antibacterial activity against multi-drug resistant Acinetobacter baumannii clinical isolate 5 assessed as inhibition of bacterial growth incubated for 16 to 18 hrs by CLSI protocol based method; assay type: functional; details: time 16-18 hrs, read-out: MIC100
[9] = system: Acinetobacter baumannii; assay: Antibacterial activity against multi-drug resistant Acinetobacter baumannii clinical isolate 3 assessed as inhibition of bacterial growth incubated for 16 to 18 hrs by CLSI protocol based method; assay type: functional; details: time 16-18 hrs, read-out: MIC100
[10] = system: Acinetobacter baumannii; assay: Antibacterial activity against multi-drug resistant Acinetobacter baumannii clinical isolate 10 assessed as inhibition of bacterial growth incubated for 16 to 18 hrs by CLSI protocol based method; assay type: functional; details: time 16-18 hrs, read-out: MIC100
[11] = Cytotoxicity against African green monkey Vero cells assessed as reduction in cell viability incubated for 72 hrs by MTT assay; assay type: toxicity, cell-based; details: chlorocebus sabaeus
[12] = system: Acinetobacter baumannii; assay: Antibacterial activity against multi-drug resistant Acinetobacter baumannii WL-487 assessed as inhibition of bacterial growth incubated for 16 to 18 hrs by CLSI protocol based method; assay type: functional; details: time 16-18 hrs, read-out: MIC100
[13] = system: Acinetobacter baumannii; assay: Antibacterial activity against multi-drug resistant Acinetobacter baumannii 5-032 assessed as inhibition of bacterial growth incubated for 16 to 18 hrs by CLSI protocol based method; assay type: functional; details: time 16-18 hrs, read-out: MIC100
[14] = system: Acinetobacter baumannii; assay: Antibacterial activity against multi-drug resistant Acinetobacter baumannii clinical isolate 7 assessed as inhibition of bacterial growth incubated for 16 to 18 hrs by CLSI protocol based method; assay type: functional; details: time 16-18 hrs, read-out: MIC100
[15] = system: Acinetobacter baumannii; assay: Antibacterial activity against multi-drug resistant Acinetobacter baumannii NR-17777 assessed as inhibition of bacterial growth incubated for 16 to 18 hrs by CLSI protocol based method; assay type: functional; details: time 16-18 hrs, read-out: MIC100
[16] = system: Acinetobacter baumannii; assay: Antibacterial activity against multi-drug resistant Acinetobacter baumannii Naval-81 assessed as inhibition of bacterial growth incubated for 16 to 18 hrs by CLSI protocol based method; assay type: functional; details: time 16-18 hrs, read-out: MIC100
[17] = system: Acinetobacter baumannii; assay: Antibacterial activity against Acinetobacter baumannii ATCC 17978 assessed as inhibition of bacterial growth incubated for 16 to 18 hrs by CLSI protocol based method; assay type: functional; details: time 16-18 hrs, read-out: MIC100
[18] = system: Acinetobacter baumannii; assay: Antibacterial activity against multi-drug resistant Acinetobacter baumannii 5-143 assessed as inhibition of bacterial growth incubated for 16 to 18 hrs by CLSI protocol based method; assay type: functional; details: time 16-18 hrs, read-out: MIC100
[19] = system: Acinetobacter baumannii; assay: Antibacterial activity against multi-drug resistant Acinetobacter baumannii clinical isolate 6 assessed as inhibition of bacterial growth incubated for 16 to 18 hrs by CLSI protocol based method; assay type: functional; details: time 16-18 hrs, read-out: MIC100
[20] = system: Acinetobacter baumannii; assay: Antibacterial activity against multi-drug resistant Acinetobacter baumannii BC-5 assessed as inhibition of bacterial growth incubated for 16 to 18 hrs by CLSI protocol based method; assay type: functional; details: time 16-18 hrs, read-out: MIC100
[21] = system: Staphylococcus aureus; assay: Antibacterial activity against Staphylococcus aureus ATCC 29213 assessed as inhibition of bacterial growth incubated for 16 to 18 hrs by CLSI protocol based method; assay type: functional; details: time 16-18 hrs, read-out: MIC100
[22] = system: Acinetobacter baumannii; assay: Antibacterial activity against multi-drug resistant Acinetobacter baumannii clinical isolate 8 assessed as inhibition of bacterial growth incubated for 16 to 18 hrs by CLSI protocol based method; assay type: functional; details: time 16-18 hrs, read-out: MIC100
[23] = system: Acinetobacter baumannii; assay: Antibacterial activity against multi-drug resistant Acinetobacter baumannii clinical isolate 11 assessed as inhibition of bacterial growth incubated for 16 to 18 hrs by CLSI protocol based method; assay type: functional; details: time 16-18 hrs, read-out: MIC100
[24] = system: Acinetobacter baumannii; assay: Antibacterial activity against multi-drug resistant Acinetobacter baumannii clinical isolate 1 assessed as inhibition of bacterial growth incubated for 16 to 18 hrs by CLSI protocol based method; assay type: functional; details: time 16-18 hrs, read-out: MIC100
[25] = system: Acinetobacter baumannii; assay: Antibacterial activity against multi-drug resistant Acinetobacter baumannii clinical isolate 12 assessed as inhibition of bacterial growth incubated for 16 to 18 hrs by CLSI protocol based method; assay type: functional; details: time 16-18 hrs, read-out: MIC100
[26] = system: Acinetobacter baumannii; assay: Antibacterial activity against multi-drug resistant Acinetobacter baumannii 5-109 assessed as inhibition of bacterial growth incubated for 16 to 18 hrs by CLSI protocol based method; assay type: functional; details: time 16-18 hrs, read-out: MIC100
[27] = system: Escherichia coli; assay: Antibacterial activity against Escherichia coli ATCC 25922 assessed as inhibition of bacterial growth incubated for 16 to 18 hrs by CLSI protocol based method; assay type: functional; details: time 16-18 hrs, read-out: MIC100
[28] = system: Acinetobacter baumannii; assay: Antibacterial activity against carbapenem-resistant Acinetobacter baumannii BAA 1605 assessed as inhibition of bacterial growth incubated for 16 to 18 hrs by CLSI protocol based method; assay type: functional; details: time 16-18 hrs, read-out: MIC100
[29] = system: Pseudomonas aeruginosa; assay: Antibacterial activity against Pseudomonas aeruginosa ATCC 27853 assessed as inhibition of bacterial growth incubated for 16 to 18 hrs by CLSI protocol based method; assay type: functional; details: time 16-18 hrs, read-out: MIC100
[30] = system: Acinetobacter baumannii; assay: Antibacterial activity against multi-drug resistant Acinetobacter baumannii H72721 assessed as inhibition of bacterial growth incubated for 16 to 18 hrs by CLSI protocol based method; assay type: functional; details: time 16-18 hrs, read-out: MIC100
[31] = system: Acinetobacter baumannii; assay: Antibacterial activity against multi-drug resistant Acinetobacter baumannii WL-136 assessed as inhibition of bacterial growth incubated for 16 to 18 hrs by CLSI protocol based method; assay type: functional; details: time 16-18 hrs, read-out: MIC100
[32] = system: Acinetobacter baumannii; assay: Antibacterial activity against multi-drug resistant Acinetobacter baumannii clinical isolate 9 assessed as inhibition of bacterial growth incubated for 16 to 18 hrs by CLSI protocol based method; assay type: functional; details: time 16-18 hrs, read-out: MIC100
[33] = system: Klebsiella pneumoniae; assay: Antibacterial activity against Klebsiella pneumoniae BAA 1705 assessed as inhibition of bacterial growth incubated for 16 to 18 hrs by CLSI protocol based method; assay type: functional; details: time 16-18 hrs, read-out: MIC100
[34] = system: Acinetobacter baumannii; assay: Antibacterial activity against multi-drug resistant Acinetobacter baumannii clinical isolate 2 assessed as inhibition of bacterial growth incubated for 16 to 18 hrs by CLSI protocol based method; assay type: functional; details: time 16-18 hrs, read-out: MIC100
[35] = system: Acinetobacter baumannii; assay: Antibacterial activity against Acinetobacter baumannii assessed as inhibition of bacterial growth by twofold serial dilution method; assay type: functional
[36] = system: Acinetobacter baumannii; assay: Antibacterial activity against Acinetobacter baumannii; assay type: functional

CN1C(=O)/C(=C/NNc2ccc(C#N)cc2)SC1=S
MIC [1]: 16 µg/mL (≈ 55.1 µM)

Cc1ccc2cc(C(=O)N3CCN(CCN4C(=O)c5cccc6cccc(c56)C4=O)CC3)c(=O)oc2c1
MIC [2]: 0.5 µg/mL (≈ 1.01 µM)

N#Cc1ccc(NNC(=O)CCN2C(=O)c3cccc4cccc(c34)C2=O)cc1
selectivity ratio [3]: > 200 | MIC [4]: 2 µg/mL (≈ 5.2 µM) | MIC [5]: 2 µg/mL (≈ 5.2 µM) | MIC [6]: 4 µg/mL (≈ 10.4 µM) | MIC [7]: 2 µg/mL (≈ 5.2 µM) | MIC [8]: 4 µg/mL (≈ 10.4 µM) | MIC [9]: 1 µg/mL (≈ 2.6 µM) | MIC [10]: 8 µg/mL (≈ 20.8 µM) | CC50 at 72 h [11]: > 100 µg/mL | MIC [12]: 4 µg/mL (≈ 10.4 µM) | MIC [13]: 2 µg/mL (≈ 5.2 µM) | MIC [14]: 1 µg/mL (≈ 2.6 µM) | MIC [15]: 2 µg/mL (≈ 5.2 µM) | MIC [16]: 2 µg/mL (≈ 5.2 µM) | MIC [17]: 2 µg/mL (≈ 5.2 µM) | MIC [18]: 1 µg/mL (≈ 2.6 µM) | MIC [19]: 4 µg/mL (≈ 10.4 µM) | MIC [20]: 2 µg/mL (≈ 5.2 µM) | MIC [21]: > 64 µg/mL | MIC [22]: 2 µg/mL (≈ 5.2 µM) | MIC [23]: 2 µg/mL (≈ 5.2 µM) | MIC [24]: 1 µg/mL (≈ 2.6 µM) | MIC [25]: 2 µg/mL (≈ 5.2 µM) | MIC [26]: 2 µg/mL (≈ 5.2 µM) | MIC [27]: > 64 µg/mL | MIC [28]: 0.5 µg/mL (≈ 1.3 µM) | MIC [29]: > 64 µg/mL | MIC [30]: 2 µg/mL (≈ 5.2 µM) | MIC [31]: 2 µg/mL (≈ 5.2 µM) | MIC [32]: 2 µg/mL (≈ 5.2 µM) | MIC [33]: > 64 µg/mL | MIC [34]: 2 µg/mL (≈ 5.2 µM)

CCCCCCCCCCN1CCN(c2ccc3c4c(cccc24)C(=O)N(CC(O)Cn2c([N+](=O)[O-])cnc2C)C3=O)CC1 (stereo not drawn)
MIC [35]: 13 µM (≈ 7.86 µg/mL)

N#Cc1ccc(NNC(=O)c2ccc(Br)cc2)cc1
MIC [36]: 0.25 µg/mL (≈ 0.791 µM)

O=C(CCN1C(=O)c2cccc3cccc(c23)C1=O)NNc1ccc(Cl)cc1
selectivity ratio [3]: > 200 | MIC [4]: 1 µg/mL (≈ 2.54 µM) | MIC [5]: 1 µg/mL (≈ 2.54 µM) | MIC [6]: 2 µg/mL (≈ 5.08 µM) | MIC [7]: 1 µg/mL (≈ 2.54 µM) | MIC [8]: 2 µg/mL (≈ 5.08 µM) | MIC [9]: 0.5 µg/mL (≈ 1.27 µM) | MIC [10]: 2 µg/mL (≈ 5.08 µM) | CC50 at 72 h [11]: > 100 µg/mL | MIC [12]: 1 µg/mL (≈ 2.54 µM) | MIC [13]: 2 µg/mL (≈ 5.08 µM) | MIC [14]: 1 µg/mL (≈ 2.54 µM) | MIC [15]: 2 µg/mL (≈ 5.08 µM) | MIC [16]: 1 µg/mL (≈ 2.54 µM) | MIC [17]: 1 µg/mL (≈ 2.54 µM) | MIC [18]: 2 µg/mL (≈ 5.08 µM) | MIC [19]: 2 µg/mL (≈ 5.08 µM) | MIC [20]: 1 µg/mL (≈ 2.54 µM) | MIC [21]: > 64 µg/mL | MIC [22]: 1 µg/mL (≈ 2.54 µM) | MIC [23]: 2 µg/mL (≈ 5.08 µM) | MIC [24]: 1 µg/mL (≈ 2.54 µM) | MIC [25]: 1 µg/mL (≈ 2.54 µM) | MIC [26]: 2 µg/mL (≈ 5.08 µM) | MIC [27]: > 64 µg/mL | MIC [28]: 0.5 µg/mL (≈ 1.27 µM) | MIC [29]: > 64 µg/mL | MIC [30]: 1 µg/mL (≈ 2.54 µM) | MIC [31]: 1 µg/mL (≈ 2.54 µM) | MIC [32]: 1 µg/mL (≈ 2.54 µM) | MIC [33]: > 64 µg/mL | MIC [34]: 1 µg/mL (≈ 2.54 µM)
